For the experiment, the system named is C. albicans SC 5314. Kind of experiment: Single-dose intravenous treatment of systemic candidiasis in mice. It counts as in vivo. Particulars: Candida albicans, SC5314, iv. Here is the method:
Female Swiss Webster mice were infected intraveneously with 5 x 10⁶ blastospores of C. albicans SC 5314 and treated one time with either ABLC or amphotericin B, five hours later. The amphotericin B was diluted in 5% dextrose for intravenous injection into the experimental mice. The ABLC formulation was also administered intravenously.

Structures are written as SMILES. Like-named read-outs stand apart in the source and are kept apart here.

With `C[C@@H]1[C@H](O)[C@@H](C)/C=C/C=C/C=C/C=C/C=C/C=C/C=C/[C@H](O[C@@H]2O[C@H](C)[C@@H](O)[C@H](N)[C@@H]2O)C[C@@H]2O[C@](O)(C[C@@H](O)C[C@@H](O)[C@H](O)CC[C@@H](O)C[C@@H](O)CC(=O)O[C@H]1C)C[C@H](O)[C@H]2C(=O)O` [Amphotericin B], the ED50 stood at 0.7 mg/kg (5 h, read-out: ED₅₀(mg AMB/kg) Clearance); 0.46 mg/kg (5 h, read-out: ED₅₀(mg AMB/kg) Survival); 0.46 mg/kg (read-out: survival ED₅₀); 0.7 mg/kg (single i.v. dose, infected mice, read-out: ED₅₀ based on kidney clearance).

For the origin of these results see patent publication EP0421733B1, “Amphotericin B lipid complex” (THE LIPOSOME COMPANY, INC., priority 1989, dated 1991).
